One experiment deals with Carbonic anhydrase 12 (Homo sapiens) (UniProt O43570).
Chain of Carbonic anhydrase 12 (Homo sapiens) (O43570 whole entry): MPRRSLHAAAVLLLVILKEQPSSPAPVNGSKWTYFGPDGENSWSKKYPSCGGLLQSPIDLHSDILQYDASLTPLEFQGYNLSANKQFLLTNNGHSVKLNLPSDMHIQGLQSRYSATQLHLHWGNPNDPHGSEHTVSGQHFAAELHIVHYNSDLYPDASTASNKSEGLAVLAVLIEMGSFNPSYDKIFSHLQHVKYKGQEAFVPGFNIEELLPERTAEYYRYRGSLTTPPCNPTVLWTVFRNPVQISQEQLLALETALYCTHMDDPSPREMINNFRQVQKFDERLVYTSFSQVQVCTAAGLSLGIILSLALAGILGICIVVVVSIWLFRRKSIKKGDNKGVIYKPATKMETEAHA
In turn, `O=[Se](=O)(O)O` yielded a Kinact of 138 mM.
The compound SODIUM STANNATE returned a Kinact of 1.02 mM.
The same measure, in the same setting: as for `O=P(O)(O)OP(=O)(O)O`, the figure is 63.9 mM.
The same measure, in the same setting: as for SODIUM DIOXIDOTRIOXOOSMIUM, the figure is 130 mM.
In turn, `CCN(CC)C(=S)S` registered a Kinact of 0.0011 mM.

In a further experiment the target is Carbonic anhydrase 14 (Homo sapiens) (UniProt Q9ULX7).
Chain of Carbonic anhydrase 14 (Homo sapiens) (Q9ULX7 whole entry): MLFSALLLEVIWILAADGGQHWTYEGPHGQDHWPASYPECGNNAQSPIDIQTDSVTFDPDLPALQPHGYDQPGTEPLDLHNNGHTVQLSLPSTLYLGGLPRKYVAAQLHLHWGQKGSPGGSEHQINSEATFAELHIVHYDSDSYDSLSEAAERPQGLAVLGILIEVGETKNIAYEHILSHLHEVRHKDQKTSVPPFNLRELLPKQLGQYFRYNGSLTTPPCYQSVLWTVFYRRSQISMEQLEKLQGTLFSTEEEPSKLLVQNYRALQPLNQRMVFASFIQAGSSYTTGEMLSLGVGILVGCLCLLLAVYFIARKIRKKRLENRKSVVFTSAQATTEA
Description: Inhibition of human recombinant CA14 by stopped flow CO2 hydration assay
`O=[Se](=O)(O)O`: the Kinact was 49.6 mM.
Regarding `O=P(O)(O)OP(=O)(O)O`, the Kinact came out at 0.76 mM.
Regarding SODIUM DIOXIDOTRIOXOOSMIUM, the Kinact came to 72.5 mM.
Consider `CCN(CC)C(=S)S`, for which the Kinact came out at 0.001 mM.

The target of another experiment is Carbonic anhydrase 9 (Homo sapiens) (UniProt Q16790). In words: Inhibition of human recombinant CA9 by stopped flow CO2 hydration assay.
`O=[Se](=O)(O)O`: the Kinact was determined as 183 mM.
On to `O=P(O)(O)OP(=O)(O)O`, for which the Kinact came to 46.3 mM.
SODIUM DIOXIDOTRIOXOOSMIUM: the Kinact stood at 184 mM.
As to `CCN(CC)C(=S)S`, the Kinact is 0.0014 mM.

The record behind these values is ChEMBL document CHEMBL1154948, “Carbonic anhydrase inhibitors. Inhibition of transmembrane isoforms IX, XII, and XIV with less investigated anions including trithiocarbonate and dithiocarbamate” (Bioorg Med Chem Lett, 2010).
